Experimental data from ChEMBL document CHEMBL4261500, “New tricks for human farnesyltransferase inhibitor: cancer and beyond” (Medchemcomm, 2017).

What was measured:
A549 = assay: Cytotoxicity against human A549 cells assessed as decrease in cell viability after 48 hrs by MTT assay; format: functional, cell-based; conditions: A549, 48 h
[1] = target: Protein farnesyltransferase (Rattus norvegicus, UniProt Q02293+Q04631); assay: Inhibition of recombinant rat FTase alpha/beta expressed in Escherichia coli using NBD-FPP/GST-tagged H-Ras as substrate incubated for 2 hrs by SDS-PAGE method
A-431 = assay: Cytotoxicity against human A431 cells; format: cell-based
[2] = target: Protein farnesyltransferase (Homo sapiens, UniProt P49354+P49356); assay: Inhibition of human EC17 cell-derived FTase using recombinant GST-tagged H-Ras/(3H)-FPP as substrate incubated for 1 hr by liquid scintillation counting method; format: protein-complex assay

| IC50 [1] | IC50 [2] | Structure (SMILES) | IC50 (A549) | IC50 (A-431) |
| --- | --- | --- | --- | --- |
| 2990 nM |  | COC1=C(OC)[C@H](O)[C@H](C/C=C(\C)CC/C=C(\C)CCC=C(C)C)[C@@H](C)C1=O [ANTROQUINONOL] | 3240 nM |  |
|  | 860 nM | CC[C@@]1(O)C[C@H](O[C@H]2C[C@H]([N+](C)(C)Cc3ccccc3)[C@@H](O[C@H]3C[C@H](O)[C@H](O[C@H]4CCC(=O)[C@H](C)O4)[C@H](C)O3)[C@H](C)O2)c2c(cc3c(c2O)C(=O)c2c(O)cccc2C3=O)[C@H]1C(=O)OC |  | > 10000 nM |
